Assay [1] has as its target T1, S100A9 binding to TLR4/MD2 (Homo sapiens, UniProt P06702).
T1 sequence (P06702 1-114): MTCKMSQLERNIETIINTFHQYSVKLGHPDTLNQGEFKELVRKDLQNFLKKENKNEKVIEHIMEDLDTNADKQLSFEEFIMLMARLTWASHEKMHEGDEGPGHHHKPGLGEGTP
Put plainly: Surface plasmon resonance (Biacore 3000): inhibition of S100A9 binding to immobilized TLR4. To be noted: 50 nM recombinant human S100A9 over immobilized TLR4; response at late dissociation phase. The text has this: (a) The molecular structure of ABR-238901. (b-c) Surface plasmon resonance measurement of S100A9 binding to immobilized RAGE (b) and TLR4 (c) in the presence of increasing ABR-238901 concentrations. The magnitude of the response for each ABR-238901 concentration (BABR-238901), measured at the late dissociation phase (t 350s), was expressed as percentage of the response in the absence of competitor (BO), and plotted against the concentration of ABR-238901.
Inhibition of S100A9 binding to RAGE and TLR4/MD2 by ABR-238901 was tested by surface plasmon resonance in a Biacore 3000 system (GE Healthcare, Uppsala, Sweden). Briefly, 50 nM of recombinant human S100A9 was injected over immobilized RAGE and TLR4 (2 min at 30 μL/min) in the presence of increasing concentrations of ABR-238901, ranging from 0.0488 to 100 μM. The magnitude of the responses measured at the late dissociation phase (t 350 s) in the presence of ABR-238901 (BABR-238901) were expressed as percentage of response in the absence of competitor (Bo), and plotted against the concentration of ABR-238901 (FIG. 7b-c). The curves were fit to a sigmoidal dose-response model with variable slope in Prism GraphPad for calculation of IC50.
In general terms: Surface plasmon resonance follows binding to a sensor surface in real time, without labels.

The subject of assay [2] is C57BL/6 mice with coronary artery ligation for 60 minutes followed by reperfusion. Briefly: Myocardial ischemia (60 minutes)/reperfusion, short-term (3 days) treatment: echocardiography and flow cytometry. The assay is classed as in vivo, mouse. The protocol: (a) C57BL/6 mice with MI induced by coronary artery ligation for 60 minutes followed by reperfusion received three daily i.p. injections of ABR or PBS, starting at the time of reperfusion and administered on days 0, 1 and 2 post-MI. Cardiac function was assessed by echocardiography the day before surgery and on days 3, 7, 14 and 21 in the Sham (n=10), Sham+ABR (n=10), MI (n=22) and MI+3d ABR (n=13) groups. […] (F) Neutrophil and (G) monocyte counts in the bone marrow were increased 2 days after myocardial ischaemia/reperfusion in the MI+3d ABR group (n=6) compared to the MI group treated with PBS (n=6). (H) Neutrophil, (I) monocyte, and (J) macrophage numbers in the myocardium in the MI and MI+3d ABR groups on Day 2 post-MI. […] The P-values refer to the difference between the MI and the MI+3d ABR groups. The P-values for the repeated measurement experiments refer to the difference between the MI and the MI+3d ABR groups, analysed by 2-way ANOVA with Fisher LSD post-hoc evaluation. Only the significant P-values are shown. Data is presented as mean±SD.
Ultrasound measurements were performed at day −1 (baseline), 7, and 21 to assess cardiac function using a Vevo 770 echocardiographic imaging system with a 707B probe (VisualSonics, Toronto, Canada). In selected experiments, additional assessment was performed on days 3 and 14. The mice were anesthetized using 1-3% isoflurane and hair was carefully removed using depilatory cream. To maintain body temperature, the mice were placed in supine position on a heated surface (37° C.). Two-dimensional M-mode images were recorded in the parasternal short-axis view at the mid-papillary level. Five complete cardiac cycles were traced to calculate fractional shortening, ejection fraction, left ventricular systolic volume, and left ventricular diastolic volume by using the VisualSonics software.
Procedures were carried out as outlined in Example 2. In contrast to permanent ischemia, the coronary artery occlusion was maintained for 60 minutes followed by removal of the ligature, allowing for reperfusion of the ischemic myocardium. Three doses of 30 mg/Kg ABR-238901 diluted in PBS were administered by daily i.p. injections at the time of the reperfusion, and after 24 h and 48 h (FIG. 5A).

Assay [3] concerns C57BL/6 mice with sepsis induced by bacterial lipopolysaccharide. Put plainly: LPS-induced sepsis: weight loss. It counts as in vivo, mouse. The protocol: General animal care, induction of sepsis and treatments were performed as described under Example 7. We included 5 mice per treatment group. After induction of sepsis, the mice were monitored for 7 days (FIG. 15A). To evaluate bodyweight, mice were weighed daily at the same time points during the course of the experiment.

[4] abbreviates: 2 days after ischemia/reperfusion.

Each structure is given as a SMILES string. pIC50: −log10 of the molar value.

Consider 1 compound from US20220378763A1, “COMPOUND FOR TREATMENT OF ACUTE INFLAMMATION IN THE MYOCARDIUM” (CALPROTECT AB, priority 2019, published 2022).

Turning to `COc1ncc(S(=O)(=O)Nc2cncc(Cl)c2O)cc1Br` [ABR-238901, 5-bromo-N-(5-chloro-4-hydroxypyridin-3-yl)-6-methoxypyridine-3-sulfonamide], the pIC50 in assay [1] was 5.68. Moreover, the “Left ventricular EF” value in assay [2] (30 mg/Kg i.p. at reperfusion, 24 h, 48 h, echocardiography, day 3) is reported as 42%; in assay [2] (30 mg/Kg i.p. at reperfusion, 24 h, 48 h, echocardiography, day 21), 48%. Also, the “Left ventricular EF, average” value in assay [2] (30 mg/Kg i.p. at reperfusion, 24 h, 48 h, echocardiography, day 7) amounted to 45%. In addition, the “Numbers of monocytes in the bone marrow” value in assay [2] (setting [4]) was “increased”. The “Numbers of neutrophils in the bone marrow” value in assay [2] (setting [4]) is given as “increased”. The “Average EDV vs MI control” value in assay [2] (3 days treatment) was “no significant differences”. The “Average ESV vs MI control” value in assay [2] (3 days treatment) was “no significant differences”. Besides, in assay [2] (3 days treatment, day 21), the “Cardiac output, average” value was 15.7 mL/min. Moreover, the “Macrophage infiltration in the myocardium” value in assay [2] (day 2 after ischemia/reperfusion) is given as “decreased”. Further, the “Decrease in body weight” value was determined as 5.2% in assay [3] (day 1), 11.7% in assay [3] (day 2), 8.8% in assay [3] (day 3) and 4% in assay [3] (day 4).

Broadly, the pIC50 is the negative decadic logarithm of the IC50, by convention in mol/L.
